Counter-ions that a name gives are not always drawn.

In one test the test system is HBV rcDNA in HepDE19 cells. As to the kind of experiment: HepDE19 assay with bDNA quantitation of HBV rcDNA. The test is classed as cell-based, hepatitis B virus (HBV). Conditions: HepDE19 cells, inhibition of rcDNA formation, 7 day incubation, top concentration 25 μM; read-out: DE-19 bDNA EC50.
For the compound `COC(=O)NC1c2c(F)ccc(C(=O)Nc3ccc(F)c(Cl)c3)c2CC1(F)F` (stereo not shown) [Compound 210, O-methyl, N-((4-((3-chloro-4-fluorophenyl)carbamoyl)-2,2,7-trifluoro-2,3-dihydro-1H-inden-1-yl) carbamate], the EC50 turned out to be 15 µM.
Consider `COC(=O)NC1(C)CCc2c(C(=O)Nc3ccc(F)c(Cl)c3)ccc(F)c21` (stereo not shown) [Compound 214, O-methyl, N-(4-((3-chloro-4-fluorophenyl)carbamoyl)-7-fluoro-1-methyl-2,3-dihydro-1H-inden-1-yl) carbamate], for which the EC50 is 2.6 µM.
As for `COC(=O)NC1(C)CCc2c(C(=O)Nc3ccc(F)c(Cl)c3)ccc(F)c21` (stereo not shown) [Compound 217, O-Methyl, N-(4-((3-chloro-4-fluorophenyl)carbamoyl)-7-fluoro-1-methyl-2,3-dihydro-1H-inden-1-yl) carbamate], the EC50 came to 12 µM.
Take `COC(=O)NC1(C)CCc2c(C(=O)Nc3ccc(F)c(Cl)c3)ccc(F)c21` (stereo not shown) [Compound 218, O-Methyl, N-(4-((3-chloro-4-fluorophenyl)carbamoyl)-7-fluoro-1-methyl-2,3-dihydro-1H-inden-1-yl) carbamate]: the EC50 worked out at 1.9 µM.
As for `CC1(NC(=O)OCc2ccccn2)CCc2c(C(=O)Nc3ccc(F)c(Cl)c3)ccc(F)c21` (stereo not shown) [Compound 219, O-pyridin-2-ylmethyl, N-(4-((3-chloro-4-fluorophenyl)carbamoyl)-7-fluoro-1-methyl-2,3-dihydro-1H-inden-1-yl) carbamate], the EC50 turned out to be 1.5 µM.
The same measure, in the same setting: as for `O=C(NC1c2c(F)ccc(C(=O)Nc3ccc(F)c(Cl)c3)c2CC1(F)F)OCc1ccccn1` (stereo not shown) [Compound 220, O-pyridin-2-ylmethyl, N-(4-((3-chloro-4-fluorophenyl)carbamoyl)-2,2,7-trifluoro-2,3-dihydro-1H-inden-1-yl) carbamate], the figure is 10 µM.

Still in this test, the particulars now being: Hepatitis B virus, HepDE19, 168 h, HepDE19 cells, inhibition of rcDNA formation, 7 day incubation, top concentration 25 μM; read-out: DE-19 bDNA EC50.
For the compound `O=C(N[C@H]1CCc2c(C(=O)Nc3ccc(F)c(Cl)c3)ccc(F)c21)O[C@H]1CCOC1` [Compound 181, O—(S)-Tetrahydrofuran-3-yl, N—((S)-4-((3-chloro-4-fluorophenyl)carbamoyl)-7-fluoro-2,3-dihydro-1H-inden-1-yl) carbamate], the EC50 came out at 0.15 µM.
Consider `COCCS(=O)(=O)N[C@H]1CCc2c(C(=O)Nc3ccc(F)c(Cl)c3)ccc(F)c21` [Compound 182, (S)—N-(3-Chloro-4-fluorophenyl)-7-fluoro-1-((2-methoxyethyl)sulfonamido)-2,3-dihydro-1H-indene-4-carboxamide], for which the EC50 stood at 0.59 µM.
As to `O=C(Nc1ccc(F)c(Cl)c1)c1ccc(F)c2c1CC[C@@H]2Nc1ncc(O)cn1` [Compound 186, (S)-N-(3-chloro-4-fluorophenyl)-7-fluoro-1-((5-hydroxypyrimidin-2-yl)amino)-2,3-dihydro-1H-indene-4-carboxamide], the EC50 is 1.6 µM.
With `O=C(N[C@H]1CCc2c(C(=O)Nc3ccc(F)c(Cl)c3)ccc(F)c21)OCc1nc[nH]n1` [Compound 195, O-(1H-1,2,4-Triazol-3-yl)methyl, N—(S)-(4-((3-chloro-4-fluorophenyl)carbamoyl)-7-fluoro-2,3-dihydro-1H-inden-1-yl) carbamate], the EC50 came out at 0.1 µM.
With `O=C1CC[C@@H](OC(=O)N[C@H]2CCc3c(C(=O)Nc4ccc(F)c(Cl)c4)ccc(F)c32)CN1` [Compound 199, O—(R)-6-Oxopiperidin-3-yl, N—((S)-4-((3-chloro-4-fluorophenyl)carbamoyl)-7-fluoro-2,3-dihydro-1H-inden-1-yl)carbamate], the EC50 came to 0.25 µM.
Take `O=C1CC[C@H](OC(=O)N[C@H]2CCc3c(C(=O)Nc4ccc(F)c(Cl)c4)ccc(F)c32)CN1` [Compound 200, O—(S)-6-Oxopiperidin-3-yl, N—((S)-4-((3-chloro-4-fluorophenyl)carbamoyl)-7-fluoro-2,3-dihydro-1H-inden-1-yl) carbamate]: the EC50 came to 0.43 µM.
Consider `Cc1cc(NC(=O)c2ccc(F)c3c2OCC3NC(=O)OCc2ccccn2)ccc1F` (stereo not shown) [Compound 205, O-Pyridin-2-ylmethyl, N-(4-fluoro-7-((4-fluoro-3-methylphenyl)carbamoyl)-2,3-dihydrobenzofuran-3-yl) carbamate], for which the EC50 is 3.7 µM.
For the compound `O=C(NC1CC1)N[C@H]1CCc2c(C(=O)Nc3ccc(F)c(Cl)c3)ccc(F)c21` [Compound 209, (S)—N-(3-Chloro-4-fluorophenyl)-1-(3-cyclopropylureido)-7-fluoro-2,3-dihydro-1H-indene-4-carboxamide], the EC50 is 0.33 µM.
Turning to `O=C(Nc1ccc(F)c(Cl)c1)c1cccc2c1CC[C@@H]2NS(=O)(=O)C1CC1` [Compound 216, (S)—N-(3-chloro-4-fluorophenyl)-1-(cyclopropanesulfonamido)-2,3-dihydro-1H-indene-4-carboxamide], the EC50 turned out to be 0.04 µM.
On to `O=C(Nc1ccc(F)c(Cl)c1)c1ccc(F)c2c1CC[C@@H]2NS(=O)(=O)CC1CC1` [Compound 221, (S)—N-(3-Chloro-4-fluorophenyl)-1-((cyclopropylmethyl)sulfonamido)-7-fluoro-2,3-dihydro-1H-indene-4-carboxamide], for which the EC50 turned out to be 0.21 µM.
Consider `O=C(Nc1ccc(F)c(Cl)c1)c1ccc(F)c2c1CC[C@@H]2NS(=O)(=O)Cc1ccccc1` [Compound 222, (S)—N-(3-Chloro-4-fluorophenyl)-7-fluoro-1-((phenylmethyl)sulfonamido)-2,3-dihydro-1H-indene-4-carboxamide], for which the EC50 was 0.3 µM.

Still in this test, the particulars now being: Hepatitis B virus, HepDE19, 168 h, read-out: DE-19 bDNA EC50 (μM), HepDE19 cells, inhibition of rcDNA formation, 7 day incubation, top concentration 25 μM.
As to `O=C(Nc1ccc(F)c(Cl)c1)c1ccc(F)c2c1CC[C@@H]2NS(=O)(=O)c1ccccc1` [Compound 183, (S)—N-(3-Chloro-4-fluorophenyl)-7-fluoro-1-(phenylsulfonamido)-2,3-dihydro-1H-indene-4-carboxamide], the EC50 was found to be 0.65 µM.
For `O=C(Nc1ccc(F)c(Cl)c1)c1ccc(F)c2c1CC[C@@H]2NS(=O)(=O)c1ccccn1` [Compound 184, (S)—N-(3-Chloro-4-fluorophenyl)-7-fluoro-1-(pyridine-2-sulfonamido)-2,3-dihydro-1H-indene-4-carboxamide Hydrochloride], the EC50 amounted to 0.66 µM.
For the compound `COCC(=O)N1CCC(COC(=O)N[C@H]2CCc3c(C(=O)Nc4ccc(F)c(Cl)c4)ccc(F)c32)CC1` [Compound 185, O-(1-(2-Methoxyacetyl)piperidin-4-yl)methyl, N—(S)-(4-((3-chloro-4-fluorophenyl)carbamoyl)-7-fluoro-2,3-dihydro-1H-inden-1-yl) carbamate], the EC50 was determined as 0.37 µM.
`O=C(N[C@H]1CCc2c(C(=O)Nc3ccc(F)c(Cl)c3)ccc(F)c21)OCc1cc[nH]n1` [Compound 193, O-(1H-Pyrazol-3-yl)methyl, N—(S)-(4-((3-chloro-4-fluorophenyl)carbamoyl)-7-fluoro-2,3-dihydro-1H-inden-1-yl) carbamate]: the EC50 was found to be 0.06 µM.
Consider `Cn1ccc(CNC(=O)N[C@H]2CCc3c(C(=O)Nc4ccc(F)c(Cl)c4)ccc(F)c32)n1` [Compound 194], for which the EC50 was 0.16 µM.
In the case of `O=C(Nc1ccc(F)c(Cl)c1)c1ccc(F)c2c1CC[C@@H]2Nc1ccncn1` [Compound 196, (S)—N-(3-Chloro-4-fluorophenyl)-7-fluoro-1-(pyrimidin-4-ylamino)-2,3-dihydro-1H-indene-4-carboxamide], the EC50 was 0.63 µM.
In the case of `COc1ccc(Cn2ccc3cnc(N[C@H]4CCc5c(C(=O)Nc6ccc(F)c(Cl)c6)ccc(F)c54)nc32)cc1` [Compound 197, (S)—N-(3-Chloro-4-fluorophenyl)-7-fluoro-1-((7-(4-methoxybenzyl)-7H-pyrrolo[2,3-d]pyrimidin-2-yl)amino)-2,3-dihydro-1H-indene-4-carboxamide], the EC50 was found to be 1.2 µM.
Same read-out and setting: as for `O=C1CCC[C@H](COC(=O)N[C@H]2CCc3c(C(=O)Nc4ccc(F)c(Cl)c4)ccc(F)c32)N1` [Compound 198, O—((R)-6-Oxopiperidin-2-yl)methyl, N—((S)-4-((3-chloro-4-fluorophenyl)carbamoyl)-7-fluoro-2,3-dihydro-1H-inden-1-yl) carbamate], the figure is 0.22 µM; as for `O=C1CCC[C@@H](COC(=O)N[C@H]2CCc3c(C(=O)Nc4ccc(F)c(Cl)c4)ccc(F)c32)N1` [Compound 212, O—((S)-6-Oxopiperidin-2-yl)methyl, N—((S)-4-((3-chloro-4-fluorophenyl)carbamoyl)-7-fluoro-2,3-dihydro-1H-inden-1-yl) carbamate], 0.27 µM.
With `O=C1CC(COC(=O)N[C@H]2CCc3c(C(=O)Nc4ccc(F)c(Cl)c4)ccc(F)c32)N1` (stereo partly drawn) [Compound 213, O-(4-Oxoazetidin-2-yl)methyl, N—((S)-4-((3-chloro-4-fluorophenyl)carbamoyl)-7-fluoro-2,3-dihydro-1H-inden-1-yl) carbamate], the EC50 came to 0.33 µM.

Staying with this test, now noted: read-out: DE-19 bDNA EC50; HepDE19 cells, inhibition of rcDNA formation, 7 day incubation, top concentration 25 μM.
Regarding `COC(=O)NC1COc2c(C(=O)Nc3ccc(F)c(Cl)c3)ccc(F)c21` (stereo not shown) [Compound 187, O-Methyl, N-(7-((3-chloro-4-fluorophenyl)carbamoyl)-4-fluoro-2,3-dihydrobenzofuran-3-yl) carbamate], the EC50 was found to be 23 µM.
As to `COC(=O)NC1COc2c(C(=O)Nc3ccc(F)c(Cl)c3)ccc(F)c21` (stereo not shown) [Compound 188, O-Methyl, N-(7-((3-chloro-4-fluorophenyl)carbamoyl)-4-fluoro-2,3-dihydrobenzofuran-3-yl) carbamate], the EC50 is 5.3 µM.
Same read-out and setting: as for `COC(=O)NC1COc2c(C(=O)Nc3ccc(F)c(C)c3)ccc(F)c21` (stereo not shown) [Compound 201, O-Methyl, N-(4-fluoro-7-((4-fluoro-3-methylphenyl)carbamoyl)-2,3-dihydrobenzofuran-3-yl) carbamate], the figure is 5.5 µM.
As to `COC(=O)NC1COc2c(C(=O)Nc3ccc(F)c(C)c3)ccc(F)c21` (stereo not shown) [Compound 202, O-Methyl, N-(4-fluoro-7-((4-fluoro-3-methylphenyl)carbamoyl)-2,3-dihydrobenzofuran-3-yl) carbamate], the EC50 was determined as 0.42 µM.

These data come from patent US11098010B2 (priority 2017, dated 2021).
